In the supplement of paper PMC10307832 one finds relative viability data, which are given here for six cell lines.

Holding throughout (assay): relative viability (nuclei count vs DMSO), 5 days (fraction); higher = more cells survive
Compound in assay [1]: Nc1ccn([C@@H]2O[C@H](CO)[C@@H](O)C2(F)F)c(=O)n1 [Gemcitabine] + C[C@@H](Oc1cc(-c2cnn(C3CCNCC3)c2)cnc1N)c1c(Cl)ccc(F)c1Cl [Crizotinib] (partner 1 µM)
A digest of the protocol:
(§1)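 The day after seeding in 1536-well plates, lung cancer cell lines were treated by pin tool with a single drug, or with a fixed anchor-drug dose together with five library-drug doses (not always all listed) in √10 steps. After 5 days, a combined fix-and-stain solution (final 0.05% Triton X-100, 1% formaldehyde, 1 ug/ml Hoechst) was added. Nuclei counted on 4× images gave relative viability as treated counts over vehicle counts, reported as the median of duplicate plates.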

Compound in assay [2]: Nc1ccn([C@@H]2O[C@H](CO)[C@@H](O)C2(F)F)c(=O)n1 [Gemcitabine] + CC(=O)c1c(C)c2cnc(Nc3ccc(N4CCNCC4)cn3)nc2n(C2CCCC2)c1=O [Palbociclib] (partner 0.5 µM)
The method in brief:
as §1

Compound in assay [3]: Nc1ccn([C@@H]2O[C@H](CO)[C@@H](O)C2(F)F)c(=O)n1 [Gemcitabine] + NC(=O)Nc1cc(-c2cccc(F)c2)sc1C(=O)N[C@H]1CCCNC1 [AZD7762] (partner 0.2 µM)
A digest of the protocol:
as §1

Compound in assay [4]: Nc1ccn([C@@H]2O[C@H](CO)[C@@H](O)C2(F)F)c(=O)n1 [Gemcitabine] + O=C(CCCCCCC(=O)Nc1ccccc1)NO [Vorinostat] (partner 1 µM)
A digest of the protocol: as §1

Consider NCI-H2347, for which the relative viability in assay [1] (first compound 0.001 µM) was 0.756; in assay [1] (first compound 0.003162 µM), 0.704; in assay [1] (first compound 0.01 µM) it was 0.623; in assay [1] (first compound 0.03162 µM), 0.452; in assay [1] (first compound 0.1 µM), 0.477; in assay [2] (first compound 0.001 µM), 0.412. The relative viability in assay [2] (first compound 0.003162 µM) was 0.432; in assay [2] (first compound 0.01 µM) it was 0.404; in assay [2] (first compound 0.03162 µM) it was 0.364; in assay [2] (first compound 0.1 µM) it was 0.325; in assay [3] (first compound 0.001 µM), 0.494; in assay [3] (first compound 0.003162 µM), 0.468. Also, the relative viability in assay [3] (first compound 0.01 µM) is 0.205; in assay [3] (first compound 0.03162 µM) it was 0.217; in assay [3] (first compound 0.1 µM), 0.233; in assay [4] (first compound 0.001 µM), 0.584; in assay [4] (first compound 0.003162 µM), 0.453; in assay [4] (first compound 0.01 µM), 0.507. Moreover, the relative viability in assay [4] (first compound 0.03162 µM) was 0.327; in assay [4] (first compound 0.1 µM) it was 0.281.

For NCI-H2405, the relative viability in assay [1] (first compound 0.001 µM) came to 0.846; in assay [1] (first compound 0.003162 µM), 0.775; in assay [1] (first compound 0.01 µM) it was 0.564; in assay [1] (first compound 0.03162 µM) it was 0.245; in assay [1] (first compound 0.1 µM) it was 0.22; in assay [2] (first compound 0.001 µM), 0.527. Moreover, the relative viability stood at 0.483 in assay [2] (first compound 0.003162 µM); 0.422 in assay [2] (first compound 0.01 µM); 0.203 in assay [2] (first compound 0.03162 µM); 0.188 in assay [2] (first compound 0.1 µM); 0.518 in assay [3] (first compound 0.001 µM); 0.23 in assay [3] (first compound 0.003162 µM). Also, the relative viability in assay [3] (first compound 0.01 µM) is 0.193; in assay [3] (first compound 0.03162 µM), 0.193; in assay [3] (first compound 0.1 µM) it was 0.195; in assay [4] (first compound 0.001 µM) it was 1.03; in assay [4] (first compound 0.003162 µM), 0.784; in assay [4] (first compound 0.01 µM) it was 0.543. In addition, the relative viability stood at 0.243 in assay [4] (first compound 0.03162 µM) and 0.197 in assay [4] (first compound 0.1 µM).

For the cell line NCI-H3122, the relative viability in assay [1] (first compound 0.001 µM) came out at 0.306; in assay [1] (first compound 0.003162 µM), 0.27; in assay [1] (first compound 0.01 µM) it was 0.253; in assay [1] (first compound 0.03162 µM), 0.135; in assay [1] (first compound 0.1 µM), 0.119; in assay [2] (first compound 0.001 µM), 0.195. For the same cell line, the relative viability is 0.177 in assay [2] (first compound 0.003162 µM); 0.175 in assay [2] (first compound 0.01 µM); 0.119 in assay [2] (first compound 0.03162 µM); 0.148 in assay [2] (first compound 0.1 µM); 1.02 in assay [3] (first compound 0.001 µM); 0.783 in assay [3] (first compound 0.003162 µM). Moreover, the relative viability in assay [3] (first compound 0.01 µM) is 0.126; in assay [3] (first compound 0.03162 µM) it was 0.0803; in assay [3] (first compound 0.1 µM), 0.097; in assay [4] (first compound 0.001 µM) it was 0.926; in assay [4] (first compound 0.003162 µM), 1.09; in assay [4] (first compound 0.01 µM) it was 0.618. Also, the relative viability turned out to be 0.202 in assay [4] (first compound 0.03162 µM) and 0.098 in assay [4] (first compound 0.1 µM).

Turning to PC-3 [JPC-3], the relative viability in assay [1] (first compound 0.001 µM) is 1; in assay [1] (first compound 0.003162 µM), 0.838; in assay [1] (first compound 0.01 µM) it was 0.611; in assay [1] (first compound 0.03162 µM), 0.295; in assay [1] (first compound 0.1 µM), 0.246; in assay [2] (first compound 0.001 µM), 0.512. The relative viability turned out to be 0.472 in assay [2] (first compound 0.003162 µM); 0.499 in assay [2] (first compound 0.01 µM); 0.471 in assay [2] (first compound 0.03162 µM); 0.443 in assay [2] (first compound 0.1 µM); 0.761 in assay [3] (first compound 0.001 µM); 0.482 in assay [3] (first compound 0.003162 µM). Also, the relative viability in assay [3] (first compound 0.01 µM) came to 0.336; in assay [3] (first compound 0.03162 µM), 0.35; in assay [3] (first compound 0.1 µM) it was 0.299; in assay [4] (first compound 0.001 µM) it was 0.659; in assay [4] (first compound 0.003162 µM), 0.536; in assay [4] (first compound 0.01 µM), 0.36. The relative viability came to 0.338 in assay [4] (first compound 0.03162 µM) and 0.366 in assay [4] (first compound 0.1 µM).

As to PC-14, the relative viability came to 0.903 in assay [1] (first compound 0.001 µM); 0.569 in assay [1] (first compound 0.003162 µM); 0.308 in assay [1] (first compound 0.01 µM); 0.0832 in assay [1] (first compound 0.03162 µM); 0.0612 in assay [1] (first compound 0.1 µM); 0.547 in assay [2] (first compound 0.001 µM). Further, the relative viability is 0.2 in assay [2] (first compound 0.003162 µM); 0.0649 in assay [2] (first compound 0.01 µM); 0.0528 in assay [2] (first compound 0.03162 µM); 0.0391 in assay [2] (first compound 0.1 µM); 0.269 in assay [3] (first compound 0.001 µM); 0.0798 in assay [3] (first compound 0.003162 µM). In addition, the relative viability in assay [3] (first compound 0.01 µM) came to 0.0434; in assay [3] (first compound 0.03162 µM), 0.0466; in assay [3] (first compound 0.1 µM) it was 0.0618; in assay [4] (first compound 0.001 µM), 0.82; in assay [4] (first compound 0.003162 µM), 0.165; in assay [4] (first compound 0.01 µM), 0.0458. The relative viability in assay [4] (first compound 0.03162 µM) worked out at 0.0558; in assay [4] (first compound 0.1 µM), 0.0381.

With RERF-LC-KJ, the relative viability in assay [1] (first compound 0.001 µM) stood at 0.901; in assay [1] (first compound 0.003162 µM), 0.866; in assay [1] (first compound 0.01 µM), 0.844; in assay [1] (first compound 0.03162 µM) it was 0.73; in assay [1] (first compound 0.1 µM), 0.252; in assay [2] (first compound 0.001 µM), 1.06. For the same cell line, the relative viability turned out to be 1.02 in assay [2] (first compound 0.003162 µM); 0.991 in assay [2] (first compound 0.01 µM); 0.356 in assay [2] (first compound 0.03162 µM); 0.255 in assay [2] (first compound 0.1 µM); 1.14 in assay [3] (first compound 0.001 µM); 1 in assay [3] (first compound 0.003162 µM). For the same cell line, the relative viability worked out at 0.951 in assay [3] (first compound 0.01 µM); 0.233 in assay [3] (first compound 0.03162 µM); 0.181 in assay [3] (first compound 0.1 µM); 0.661 in assay [4] (first compound 0.001 µM); 0.682 in assay [4] (first compound 0.003162 µM); 0.709 in assay [4] (first compound 0.01 µM). Moreover, the relative viability in assay [4] (first compound 0.03162 µM) was 0.452; in assay [4] (first compound 0.1 µM), 0.246.
